For assay [1], the system named is production of Leukotriene B4. Description: Rat ex vivo Leukotriene B4 inhibition (oral dosing, blood challenged with A23187). It counts as in vivo, Rats. To be noted: 50 mg/Kg, two hours post dose. The method, then: The test method described below measures the ability of a compound when administered orally to rats to inhibit the production of Leukotriene B4 in their blood which is drawn and challenged.
Rats (CD, male, non-fasted, 250 g) are lightly anesthetized with carbon dioxide and an approximately 0.75 mL sample of whole blood is obtained via cardiac puncture. The sample is dispensed into 12 X 75 mm polypropylene tubes containing 8-10 µL of 10,000 units/mL heparin, mixed and then maintained on ice. The rats are allowed to recover approximately one hour then dosed orally with compound dissolved in PEG 400 at a 5 mL/Kg volume. Five (5) rats are utilized per group. Two (2) hours post dose the rats are again anesthetized with carbon dioxide and the blood sampled again via cardiac puncture.
Duplicate 200 µL portions of blood are added to 1.0 mL polypropylene tubes. A 10 µL portion of 1mM A23187 Calcium Ionophore in dimethyl sulfoxide/Tris buffer is added to each tube. The tubes are gently vortexed then incubated in a 37°C water bath for 30 minutes. The tubes are then centrifuged at 4000 rpm for 10 minutes. 50 µL portions of plasma are transferred to 1.0 mL tubes containing 200 µL of methanol. The tubes are vortexed then placed in the freezer overnight.
The tubes are removed from the freezer then centrifuged at 4000 rpm for 10 minutes. […] portions of the methanol/plasma supernatant and 10 µL methanol dilutions of LTB4 standard curve are transferred to 96 well v-bottom microtiter plates. The plates are vacuum dried at 40°C. A 40 µL portion of LTB4 radioimmunoassay buffer is added to each well. The plate is bath sonicated for 5 minutes then assayed according to the manufacturer's (Advanced Magnetics; Cambridge, MA) instructions. Percent inhibition values are obtained by comparing the level of LTB4 in the post-dose samples to the level in the pre-dose samples according to the equation below. % Inhibition =((LTB4 pre-dose) - (LTB4 post-dose))/((LTB4 pre-dose))X 100 [formula]

Assay [2] concerns production of Leukotriene C4 in mouse peritoneal macrophages. Put plainly: In vitro mouse peritoneal macrophage Leukotriene C4 inhibition (zymosan-stimulated, LTC4 radioimmunoassay). It counts as cell-based. Conditions: Zymosan 50 µg/mL. The protocol:
The test method described below measures the ability of compounds to inhibit the production of Leukotriene C4 in mouse peritoneal macrophages.
Mice (female, CD-1, weighing 25 g) are euthanized by exposure to carbon dioxide. The peritoneal cavity is exposed by peeling back the abdominal skin. A 5 mL portion of media (M199 containing 1% fetal bovine serum, 100 units/mL of penicillin, 100 µg/mL of streptomycin, 20 units/mL of heparin and no glutamine) is injected into the exposed peritoneal cavity of each mouse. The lavage fluid is removed and pooled to yield approximately1 X 10^6 macrophages/mL. A 2 mL portion of lavage fluid is added to each well of a 24 well sterile multidish and the macrophages are allowed to adhere to the plate for 2 hours at 37°C in a 5% carbon dioxide atmosphere. The media is removed and each well is washed with 2 mL of phosphate buffered saline (PBS). A 1 mL portion of media, without heparin, but containing 5 µCi/mL of 3H-myoinositol is added to each well and the plates are incubated overnight at 37°C in a 5% carbon dioxide atmosphere. The media is removed and the cells are washed twice with 2 mL portions of PBS. A 1 mL portion of Puck's saline formulation A containing 1 mM calcium chloride, 1 mM magnesium chloride and 10 mM lithium chloride is added to each well. (The Puck's formulation is made first as a 10X solution which contains 4 g of potassium chloride, 80 g of sodium chloride and 10 g of glucose per liter. The Puck's saline formulation A is made using 10 mL of the 10X Puck's formulation, 0.47 mL of 7.5% sodium bicarbonate and 2 mL of 1M N-2-hydroxyethylpiperazine-N'-2-ethanesulfonic acid per 100 mL.)
Compounds are dissolved in dimethyl sulfoxide. Compounds are tested at concentrations of 10, 1 and 0.1 µM. Each concentration is tested in duplicate.
A 1 µL portion of compound solution or vehicle (DMSO) is added to each well and the plates are incubated for 15 minutes at 37°C in a 5% carbon dioxide atmosphere. Zymosan is then added to provide a final concentration of 50 µg/mL in each well and the plate is incubated for 1 to 2 hours at 37°C in a 5% carbon dioxide atmosphere.
Following incubation 200 µL portions of media are transferred to 12 X 75 mm tubes. The tubes are either assayed immediately or stored at -20°C until they can be assayed.
The media is assayed for the presence of Leukotriene C4 by radioimmunoassay which is performed according to the manufacturer's (Advanced Magnetics; Cambridge, MA) instructions.

In assay [3] the test system is production of Leukotriene B4 (LTB4). Description: Dog ex vivo Leukotriene B4 inhibition (oral dosing, blood challenged with calcium ionophore). To be noted: each entry one dog, negative = stimulation of LTB4 production; for inhibition at 5 mg/kg: Canis lupus familiaris, po. It is filed as in vivo, beagle dogs. The protocol:
The test method described below measures the ability of a compound when administered orally to dogs to inhibit the production of Leukotriene B4 (LTB4) in their blood which is drawn and challenged at selected time points.
The test is conducted in beagle dogs (male and female; about 10 Kg). Prior to starting, the neck area of the beagle is shaved to allow easy access to the jugular vein. A 3-4 mL sample of blood is drawn from the jugular vein into a heparinized vacutainer. The dog is then dosed using a tube long enough to reach its stomach. The compound is dissolved in PEG 400 at a concentration such that the appropriate dose can be administered in approximately 5 mL. Immediately after the compound is given, a flush using 5 mL of vehicle is given to rinse the dosing tube. At selected time points following the dose, a 3-4 mL sample of blood is drawn.
The blood samples that have been drawn are challenged as soon as possible. A 0.5 mL portion of blood is aliquoted into 3 tubes (1 mL microtiter tubes). A 1 µL portion of 25 mM calcium ionophore in dimethyl sulfoxide is added to 2 of the tubes. A 1 µL portion of dimethyl sulfoxide is added to the third tube. The tubes are lightly mixed then placed in a 37°C water bath for 30 minutes. The tubes are centrifuged at 11,000 rpm for 3 minutes and the plasma supernatant is transferred to clean tubes. A 50 µL portion of this plasma is added to a I mL microtiter tube containing 200 µL of methanol. The tubes are placed in the freezer at -20°C for at least 1 hour then centrifuged at 2000 rpm for 10 minutes. A 10 µL portion of the methanol supematant is dried under vacuum at ambient temperature and then reconstituted in LTB4 buffer. The amount of LTB4 in the sample is determined by radioimmunoassay performed according to the manufacturer's (Advanced Magnetics; Cambridge, MA) instructions. Percent inhibition values are obtained by comparing the level of LTB4 in the post-dose sample to the level in the pre-dose sample according to the equation below. % Inhibition =((LTB4 predose) - (LTB4 postdose))/((LTB4 predose))X 100 [formula]
A number of the compounds that are useful in the practice of the method of the invention were tested. The results are shown in Table 15 below where each entry represents the results from one dog. A negative number indicates stimulation of LTB4 production. All compounds were tested at a dose of 5 mg/Kg.

SMILES strings stand for the structures. “And” between values parts separate entries of the source, which are not always exact repeats. Equal values may be shown once. Read-outs that look alike come from different tables or passages of the source.

By IC50 is commonly meant the concentration that inhibits the measured activity by half. Broadly, the inhibition is the drop in the measured response relative to a control, in per cent.

For the compound `O=C(Nc1ccccc1)N(O)C1CCCCCCC1` [Compound 36, 1-Cyclooctyl-1-hydroxy-3-phenylurea], the “%I” value in assay [1] is 7%. In addition, in assay [2], the IC50 is 200 nM.

Take `CCOC(=O)CCCCCN(O)C(=O)Nc1ccccc1` [Compound 50, 6-(1-hydroxy-3-phenylureido)-1-hexanoic acid ethyl ester]: the “%I” value in assay [1] is on record as 6%. Moreover, in assay [2], the IC50 was less than 1000 nM.

For `CN(O)C(=O)Nc1ccc([N+](=O)[O-])cc1` [Compound 13, 1-hydroxy-1-methyl-3-(4-nitrophenyl)urea], in assay [1], the “%I” value is on record as 23%. Further, the midpoint of inhibition in assay [2], the IC50, lay at 1000 nM.

On to `CCC(CC)N(O)C(=O)Nc1ccc([N+](=O)[O-])cc1` [Compound 40, 1-(1-Ethylpropyl)-1-hydroxy-3-(4-nitrophenyl)urea], for which the “%I” value in assay [1] was determined as 0%. This compound also had a half-maximal inhibitory concentration (IC50) in assay [2] of 1000 nM.

As to `CN(O)C(=O)N(C)c1ccccc1` [Compound 75, 1-Hydroxy-1,3-dimethyl-3-phenylurea], the “%I” value in assay [1] is reported as 0%. Moreover, the half-maximal inhibitory concentration (IC50) in assay [2] is less than 10000 nM.

Turning to `CSc1cccc(NC(=O)N(O)C2CCCCC2)c1` [Compound 32, 1-Cyclohexyl-1-hydroxy-3-[3-(methylthio)phenyl]urea], the “%I” value in assay [1] is on record as 28%. The compound also returned a half-inhibitory concentration (IC50) in assay [2] of 400 nM.

For the compound `CC(C)N(O)C(=O)Nc1ccc([N+](=O)[O-])cc1` [Compound 30, 1-hydroxy-1-(1-methylethyl)-3-(4-nitrophenyl)urea], the “%I” value in assay [1] was 13%. Also, the IC50 in assay [2] came to 300 nM.

Consider `CCCC(CC)N(O)C(=O)Nc1ccccc1` (stereo not drawn) [Compound 71, 1-Hydroxy-1-(1-ethylbutyl)-3-phenylurea], for which the “%I” value in assay [1] came to 5%. This compound showed an IC50 in assay [2] of less than 1000 nM.

In the case of `CC(CCN(O)C(=O)Nc1ccccc1)CC(C)(C)C` (stereo not drawn) [Compound 49, 1-hydroxy-3-phenyl-1-(3,5,5-trimethylhexyl)urea], in assay [1], the “%I” value worked out at 13%. Also, the half-maximal inhibitory concentration (IC50) in assay [2] was less than 1000 nM.

Consider `CSc1ccc(NC(=O)N(O)C(C)C)cc1` [Compound 15, 1-Hydroxy-1-(1-methylethyl)-3-[4-(methylthio)phenyl]urea], for which the IC50 in assay [2] is less than 100 nM. Moreover, in assay [3] (5 mg/Kg, 1 hour post dose), the “% Inhibition 1 hour” value came to 95%. Also, in assay [3] (5 mg/Kg, 2 hour post dose), the “% Inhibition 2 hour” value is 98%. The “% Inhibition 4 hour” value in assay [3] (5 mg/Kg, 4 hour post dose) was 98% and 96% and 31%. Besides, in assay [3] (5 mg/Kg, 6 hour post dose), the “% Inhibition 6 hour” value is 84% and 14%. The inhibition at 5 mg/kg in assay [3] (1 h, 1 hour post dose, read-out: % Inhibition 1 hour) is 100%; in assay [3] (2 h, 2 hour post dose, read-out: % Inhibition 2 hour), 99%.

In the case of `CCC(C)N(O)C(=O)Nc1ccccc1` (stereo not drawn) [Compound 69, 1-Hydroxy-1-(1-methylpropyl)-3-phenylurea], the “%I” value in assay [1] came out at 71%. In assay [2], this compound had a half-inhibitory concentration (IC50) of less than 1000 nM.

Regarding `CCC(CC)N(O)C(=O)Nc1ccc(SC)cc1` [Compound 39, 1-(1-Ethylpropyl)-1-hydroxy-3-[4-(methylthio)phenyl]urea], the “%I” value in assay [1] is recorded as 59%. This compound also gave a concentration for half-maximal inhibition (IC50) in assay [2] of less than 1000 nM.

For `CCC(CC)N(O)C(=O)Nc1ccc(Cc2ccccc2)cc1` [Compound 78, 1-Hydroxy-1-(1-ethylpropyl)-3-(4-benzylphenyl)urea], the “%I” value in assay [1] amounted to 0%. In addition, in assay [2], the IC50 was less than 1000 nM.

As for `COc1ccc(NC(=O)N(O)C2CCCCCCC2)cc1` [Compound 37, 1-Cyclooctyl-1-hydroxy-3-(4-methoxyphenyl)urea], the “%I” value in assay [1] worked out at 7%. Besides, the IC50 in assay [2] is less than 1000 nM.

Consider `CCCC(CCC)N(O)C(=O)Nc1ccccc1` [Compound 70, 1-Hydroxy-1-(1-propylbutyl)-3-phenylurea], for which the “%I” value in assay [1] is reported as 0%. The compound further had an IC50 in assay [2] of less than 1000 nM.

In the case of `CCC(CC)N(O)C(=O)N(C)c1ccccc1` [Compound 74, 1-Hydroxy-1-(1-ethylpropyl)-3-methyl-3-phenylurea], the “%I” value in assay [1] stood at 7%. In assay [2], the 50% inhibitory concentration (IC50) was less than 10000 nM.

Regarding `CC(C)N(O)C(=O)Nc1ccc([S+](C)[O-])cc1` (stereo not drawn) [Compound 63, 1-Hydroxy-1-(1-methylethyl)-3-[4-(methylsulfinyl)phenyl]urea], in assay [1], the “%I” value is reported as 92%. The compound also registered an IC50 in assay [2] of 4000 nM.

In the case of `CCCCCN(O)C(=O)Nc1ccccc1` [Compound 56, 1-hydroxy-1-pentyl-3-phenylurea], the “%I” value in assay [1] is 6% and 13%. Further, the IC50 in assay [2] was less than 100 nM.

As to `CCC(CC)N(O)C(=O)Nc1cc(C(F)(F)F)cc(C(F)(F)F)c1` [Compound 73, 1-Hydroxy-1-(1-ethylpropyl)-3-(3,5-bis(trifluoromethyl)phenyl)urea], the half-maximal inhibitory concentration (IC50) in assay [2] was less than 1000 nM.

On to `CC(C)N(O)C(=O)Nc1ccc(S(C)(=O)=O)cc1` [Compound 62, 1-Hydroxy-1-(1-methylethyl)-3-[4-(methylsulfonyl)phenyl]urea], for which, in assay [1], the “%I” value amounted to 18%. The compound also yielded a 50% inhibitory concentration (IC50) in assay [2] of 6400 nM.

Take `CCCCCCCCCCCCN(O)C(=O)Nc1ccccc1` [Compound 53, 1-dodecyl-1-hydroxy-3-phenylurea]: the “%I” value in assay [1] was determined as 1%. The same compound gave an IC50 in assay [2] of less than 1000 nM.

In turn, `CCCC(C)N(O)C(=O)Nc1ccccc1` (stereo not drawn) [Compound 68, 1-Hydroxy-1-(1-methylbutyl)-3-phenylurea] returned a concentration for half-maximal inhibition (IC50) in assay [2] of less than 1000 nM.

Turning to `CCC(CC)N(O)C(=O)Nc1ccc(OCc2ccccc2)cc1` [Compound 80, 1-Hydroxy-1-(1-ethylpropyl)-3-(4-benzyloxyphenyl)urea], the IC50 in assay [2] is less than 1000 nM.

(Values after patent publication EP0777471B1, “INHIBITION OF LEUKOTRIENE BIOSYNTHESIS WITH UREA DERIVATIVES” (MINNESOTA MINING AND MANUFACTURING COMPANY, priority 1994, dated 1996).)
